Laboratory results as given in patent US8192962B2, “Processes for detecting toxic substances” (Daikin Industries, Ltd., priority 2001, dated 2012).

Tested on: Metabolism protein genes
Test: DNA chip mRNA expression in yeast, metabolism protein genes (Table 7)
Assay type: cell-based, Saccharomyces cerevisiae S288C
Method: Yeast (Saccharomyces cerevisiae S288C (α SUC2mal mel gap2 CUP1)) were incubated at 25° C. on YPD medium (yeast extract 1%, polypepton 2%, glucose 2%). One of toxic chemical substances was added to the cells at logarithmic growth phase, and the cells were further incubated for two hours. Cells were cultured without any chemical substance in the same condition, and were used as control. Concentrations of the chemical substances were defined to inhibit the growth of the yeast but not lead to death.
After completion of the incubation, the culture was centrifuged to collect the cells. To the cells, sodium acetate buffer (50 mM sodium acetate, 10 mM EDTA, 1% SDS) was added, and the mixture was shaken at 65° C. for five minutes, followed by returning to room temperature, and obtaining the supernatant, of which the procedures were repeated two times. To the supernatant, ½ amount of a solution of phenol/chloroform was added, and the mixture was centrifuged to give a supernatant, which was added with an equal amount of chloroform, and the mixture was centrifuged to give a supernatant. To the supernatant, an equal amount of isopropanol containing 0.3 M sodium acetate was added, and the mixture was allowed to stand at room temperature for 30 minutes, after which the mixture was centrifuged to give a sediment of the whole RNAs. Seventy % ethanol was added to the sediment, and the mixture was again centrifuged to give a sediment, which was then dried and dissolved in water. mRNA was isolated from the whole RNAs as followings. In view of the fact that a poly A chain is attached to the 3′ terminus of mRNA, a polynucleotide having a poly T structure which was immobilized on the surface of latex beads was used to trap the mRNA, and then the mRNA was washed and eluted with spine column (Oligotex-dT30<Super>mRNA Purification Kit, Takara). Reverse transcription of the mRNA was conducted with a reverse transcriptase (Super Script II Reverse Transcriptase; catalogue No. 18064-014, GibcoBRL) using fluorescence-labeled nucleotides to give cDNAs that were introduced with Cy3-dUTP or Cy5-dUTP during the reverse transcription.
The labeled cDNAs were dissolved in TE buffer (10mM Tris-HCl/1 mM EDTA, pH8.0), and the solution was dropped on the DNA chip containing the whole genes of yeast (DNA Chip Research Inc. Japan) so that the cDNAs were hybridized on the DNA chip at 65° C. for over 12 hours. The fluoresces intensity of the DNA chip was read with a scanner, and the ratio relative to the fluorescence intensity resulting from the absence of chemical substance was estimated as the following, which is shown in Tables 1 to 9: […]

Structure (SMILES): Cl[C@H]1[C@H](Cl)[C@@H](Cl)[C@@H](Cl)[C@H](Cl)[C@H]1Cl [(7), γ-hexachlorocyclohexane]
- The level of expressed mRNA in the presence of chemical substance/The level of expressed mRNA in the absence of chemical substance (yeast gene YKL035W): 0.6
- level of expressed mRNA in the presence/in the absence of chemical substance (yeast gene YKL060C): 1.2
- The level of expressed mRNA in the presence of chemical substance/The level of expressed mRNA in the absence of chemical substance (yeast gene YKL091C): 1.9
- The level of expressed mRNA in the presence of chemical substance/The level of expressed mRNA in the absence of chemical substance (yeast gene YKL104C): 2.3
- level of expressed mRNA in the presence/in the absence of chemical substance (yeast gene YKL148C): 0.6
- The level of expressed mRNA in the presence of chemical substance/The level of expressed mRNA in the absence of chemical substance (yeast gene YKL152C): 1.5
- level of expressed mRNA in the presence/in the absence of chemical substance (yeast gene YKL157W): 1.9
- The level of expressed mRNA in the presence of chemical substance/The level of expressed mRNA in the absence of chemical substance (yeast gene YKL213C): 1.0
- The level of expressed mRNA in the presence of chemical substance/The level of expressed mRNA in the absence of chemical substance (yeast gene YKL215C): 1.1
- level of expressed mRNA in the presence/in the absence of chemical substance (yeast gene YKR034W): 0.7
- The level of expressed mRNA in the presence of chemical substance/The level of expressed mRNA in the absence of chemical substance (yeast gene YKR039W): 1.0
- The level of expressed mRNA in the presence of chemical substance/The level of expressed mRNA in the absence of chemical substance (yeast gene YLL058W): 1.5
- level of expressed mRNA in the presence/in the absence of chemical substance (yeast gene YLR006C): 1.1
- level of expressed mRNA in the presence/in the absence of chemical substance (yeast gene YLR044C): 1.3
- level of expressed mRNA in the presence/in the absence of chemical substance (yeast gene YLR056W): 0.8
- level of expressed mRNA in the presence/in the absence of chemical substance (yeast gene YLR058C): 0.5
- level of expressed mRNA in the presence/in the absence of chemical substance (yeast gene YLR081W): 0.7
- level of expressed mRNA in the presence/in the absence of chemical substance (yeast gene YLR089C): 1.6
- The level of expressed mRNA in the presence of chemical substance/The level of expressed mRNA in the absence of chemical substance (yeast gene YLR180W): 0.6
- The level of expressed mRNA in the presence of chemical substance/The level of expressed mRNA in the absence of chemical substance (yeast gene YLR273C): 1.2
- level of expressed mRNA in the presence/in the absence of chemical substance (yeast gene YLR284C): 0.8
- The level of expressed mRNA in the presence of chemical substance/The level of expressed mRNA in the absence of chemical substance (yeast gene YLR299W): 0.8
- The level of expressed mRNA in the presence of chemical substance/The level of expressed mRNA in the absence of chemical substance (yeast gene YLR300W): 0.5
- level of expressed mRNA in the presence/in the absence of chemical substance (yeast gene YLR304C): 0.6
- The level of expressed mRNA in the presence of chemical substance/The level of expressed mRNA in the absence of chemical substance (yeast gene YLR307W): 1.5
- The level of expressed mRNA in the presence of chemical substance/The level of expressed mRNA in the absence of chemical substance (yeast gene YLR348C): 0.9
- level of expressed mRNA in the presence/in the absence of chemical substance (yeast gene YLR354C): 1.1
- level of expressed mRNA in the presence/in the absence of chemical substance (yeast gene YLR372W): 0.2
- level of expressed mRNA in the presence/in the absence of chemical substance (yeast gene YML022W): 0.6
- The level of expressed mRNA in the presence of chemical substance/The level of expressed mRNA in the absence of chemical substance (yeast gene YML054C): 1.2
- The level of expressed mRNA in the presence of chemical substance/The level of expressed mRNA in the absence of chemical substance (yeast gene YML070W): 3.1
- The level of expressed mRNA in the presence of chemical substance/The level of expressed mRNA in the absence of chemical substance (yeast gene YML100W): 2.2
- The level of expressed mRNA in the presence of chemical substance/The level of expressed mRNA in the absence of chemical substance (yeast gene YMR008C): 0.9
- level of expressed mRNA in the presence/in the absence of chemical substance (yeast gene YMR011W): 0.8
- level of expressed mRNA in the presence/in the absence of chemical substance (yeast gene YMR015C): 0.4
- The level of expressed mRNA in the presence of chemical substance/The level of expressed mRNA in the absence of chemical substance (yeast gene YMR020W): 2.7
- level of expressed mRNA in the presence/in the absence of chemical substance (yeast gene YMR083W): 1.7
- The level of expressed mRNA in the presence of chemical substance/The level of expressed mRNA in the absence of chemical substance (yeast gene YMR105C): 2.8
- The level of expressed mRNA in the presence of chemical substance/The level of expressed mRNA in the absence of chemical substance (yeast gene YMR189W): 0.8
- level of expressed mRNA in the presence/in the absence of chemical substance (yeast gene YMR205C): 0.9
- level of expressed mRNA in the presence/in the absence of chemical substance (yeast gene YMR261C): 1.3
- The level of expressed mRNA in the presence of chemical substance/The level of expressed mRNA in the absence of chemical substance (yeast gene YMR271C): 3.4
- The level of expressed mRNA in the presence of chemical substance/The level of expressed mRNA in the absence of chemical substance (yeast gene YMR296C): 0.6
- level of expressed mRNA in the presence/in the absence of chemical substance (yeast gene YMR323W): 1.1
- The level of expressed mRNA in the presence of chemical substance/The level of expressed mRNA in the absence of chemical substance (yeast gene YNL012W): 2.0
- level of expressed mRNA in the presence/in the absence of chemical substance (yeast gene YNL025C): 1.2
- The level of expressed mRNA in the presence of chemical substance/The level of expressed mRNA in the absence of chemical substance (yeast gene YNL045W): 1.8
- The level of expressed mRNA in the presence of chemical substance/The level of expressed mRNA in the absence of chemical substance (yeast gene YNL104C): 0.6
- The level of expressed mRNA in the presence of chemical substance/The level of expressed mRNA in the absence of chemical substance (yeast gene YNL106C): 0.9
- The level of expressed mRNA in the presence of chemical substance/The level of expressed mRNA in the absence of chemical substance (yeast gene YNL169C): 0.7
- level of expressed mRNA in the presence/in the absence of chemical substance (yeast gene YNL192W): 1.0
- The level of expressed mRNA in the presence of chemical substance/The level of expressed mRNA in the absence of chemical substance (yeast gene YNL231C): 2.5
- The level of expressed mRNA in the presence of chemical substance/The level of expressed mRNA in the absence of chemical substance (yeast gene YNL322C): 0.9
- The level of expressed mRNA in the presence of chemical substance/The level of expressed mRNA in the absence of chemical substance (yeast gene YNL331C): 1.9
- The level of expressed mRNA in the presence of chemical substance/The level of expressed mRNA in the absence of chemical substance (yeast gene YNL332W): 2.1
- The level of expressed mRNA in the presence of chemical substance/The level of expressed mRNA in the absence of chemical substance (yeast gene YNR019W): 0.8
- The level of expressed mRNA in the presence of chemical substance/The level of expressed mRNA in the absence of chemical substance (yeast gene YNR033W): 1.2
- The level of expressed mRNA in the presence of chemical substance/The level of expressed mRNA in the absence of chemical substance (yeast gene YNR059W): 1.6
- The level of expressed mRNA in the presence of chemical substance/The level of expressed mRNA in the absence of chemical substance (yeast gene YOL058W): 0.4
- level of expressed mRNA in the presence/in the absence of chemical substance (yeast gene YOL086C): 1.9
- level of expressed mRNA in the presence/in the absence of chemical substance (yeast gene YOL108C): 1.1
- level of expressed mRNA in the presence/in the absence of chemical substance (yeast gene YOL116W): 1.5
- The level of expressed mRNA in the presence of chemical substance/The level of expressed mRNA in the absence of chemical substance (yeast gene YOL126C): 1.4
- The level of expressed mRNA in the presence of chemical substance/The level of expressed mRNA in the absence of chemical substance (yeast gene YOL153C): 3.3
- level of expressed mRNA in the presence/in the absence of chemical substance (yeast gene YOL156W): 1.0
- The level of expressed mRNA in the presence of chemical substance/The level of expressed mRNA in the absence of chemical substance (yeast gene YOL165C): 1.4
- level of expressed mRNA in the presence/in the absence of chemical substance (yeast gene YOR002W): 1.0
- level of expressed mRNA in the presence/in the absence of chemical substance (yeast gene YOR085W): 0.6
- The level of expressed mRNA in the presence of chemical substance/The level of expressed mRNA in the absence of chemical substance (yeast gene YOR099W): 1.0
- level of expressed mRNA in the presence/in the absence of chemical substance (yeast gene YOR103C): 1.2
- level of expressed mRNA in the presence/in the absence of chemical substance (yeast gene YOR108W): 1.2
- level of expressed mRNA in the presence/in the absence of chemical substance (yeast gene YOR128C): 0.7
- The level of expressed mRNA in the presence of chemical substance/The level of expressed mRNA in the absence of chemical substance (yeast gene YOR130C): 1.3
- level of expressed mRNA in the presence/in the absence of chemical substance (yeast gene YOR142W): 1.0
- level of expressed mRNA in the presence/in the absence of chemical substance (yeast gene YOR176W): 0.5
- level of expressed mRNA in the presence/in the absence of chemical substance (yeast gene YOR178C): 0.9
- level of expressed mRNA in the presence/in the absence of chemical substance (yeast gene YOR251C): 1.0
- The level of expressed mRNA in the presence of chemical substance/The level of expressed mRNA in the absence of chemical substance (yeast gene YOR336W): 1.2
- The level of expressed mRNA in the presence of chemical substance/The level of expressed mRNA in the absence of chemical substance (yeast gene YOR347C): 0.9
- level of expressed mRNA in the presence/in the absence of chemical substance (yeast gene YOR348C): 0.8
- The level of expressed mRNA in the presence of chemical substance/The level of expressed mRNA in the absence of chemical substance (yeast gene YPL017C): 1.4
- level of expressed mRNA in the presence/in the absence of chemical substance (yeast gene YPL028W): 1.3
- level of expressed mRNA in the presence/in the absence of chemical substance (yeast gene YPL057C): 0.6
- level of expressed mRNA in the presence/in the absence of chemical substance (yeast gene YPL135W): 1.2
- level of expressed mRNA in the presence/in the absence of chemical substance (yeast gene YPL148C): 1.0
- The level of expressed mRNA in the presence of chemical substance/The level of expressed mRNA in the absence of chemical substance (yeast gene YPR026W): 1.3
- level of expressed mRNA in the presence/in the absence of chemical substance (yeast gene YPR113W): 1.2
- level of expressed mRNA in the presence/in the absence of chemical substance (yeast gene YPR165W): 1.0
- The level of expressed mRNA in the presence of chemical substance/The level of expressed mRNA in the absence of chemical substance (yeast gene YPR167C): 1.2
- level of expressed mRNA in the presence/in the absence of chemical substance (yeast gene YPR183W): 1.2
